Series [1] deals with N#Cc1cc(Br)c(O)c(Br)c1. Kind of series: Kinetics of purified wild-type bromoxynil-specific nitrilase. Type of series: biochemical, Klebsiella pneumoniae sub-species ozaenae. The settings on record: other: purified nit-wt, substrate not given, 30.0 °C. The protocol: All four colonies were grown in 200 mls L-broth containing 0.05% bromoxynil. Cells were disrupted with a French press, the high speed supernatants dialyzed against buffer containing 0.05M KPO, pH7.5; 2.5 mM dithiothreitol (DTT) and the individual crude extracts assayed for bromoxynil specific nitrilase activity. […] Cells (200 ml) were grown at 30° C. to mid log phase in M9 medium (Miller (1972) Experiments in Molecular Genetics, Cold Spring Harbor Laboratory) containing 0.1% glucose and 0.04% bromoxynil. Crude extracts were prepared by cell disruption, ultracentrifugation and dialysis of the supernatant in buffer containing 0.05M KPO4 pH 7.5 and 2.5 mM DTT. Substrate concentarion was 3 mM bromoxynil in all assays. Release of NH3 was monitored according to Harper Biochem. J. (1977) 167:685-692. The ability of K. ozaenae variant to grow in L-broth containing bromoxynil may result in acquired impermeability of the organism to the compound. However, the organism cannot grow in defined media utilizing bromoxynil as sole nitrogen source.
Nitrilase was prepared from stationary phase MM 294 E. coli cells containing the pBrx9, pBrx11 or pBrx28 plasmids. Cultures were grown under ampicillin selection until the whole cell nitrilase assay yielded an OD640 of approximately 2.0. Cultures were centrifuged at 8,000 xg for 15 min at 4° C. […]

Series [2] concerns the target T1, Klebsiella ozaenae bromoxynil-specific nitrilase, N-terminal modified variant nit-23 (pBrx23) (Klebsiella pneumoniae, UniProt P10045).
T1 construct: natural N-terminus truncated (Bal31, about 51 nt removed) and replaced by 17 pUC19-encoded residues; purified enzyme
Kind of series: Kinetics of purified N-terminal modified nitrilase. The conditions noted are these: purified nit-23. The series is classed as biochemical, Klebsiella pneumoniae sub-species ozaenae. The protocol:
Plasmid pBrx9 was digested with BamH1, followed by resection with Bal31 for about 5 min to remove about 51 nt. The enzyme was inactivated, the resected linear DNA sequence ligated with BamH1 linkers, digested with BamH1 and recircularized under ligating conditions. […] This fragment was inserted into pCGN 566 which had been completely digested with BamH1 and SmaI to produce plasmid pBrx23, of 3.7Kb. Plasmid pCGN 566 is a derivative of pUC13 with polylinkers from pUC18 and pUC19 and the chloramphenicol resistance gene. The fragment from pBrx15 is inserted to be in reading frame with an upstream initiation codon and where 17 amino acids encoded by the pUC19 sequence replace amino acids of the naturally occurring nitrilase.
The following provides the sequence of the N-terminal modified nitrilase (nit-23). [drawing 3] Purification of the Wild-Type and Altered Nitrilase
Nitrilase was prepared from stationary phase MM 294 E. coli cells containing the pBrx9, pBrx11 or pBrx28 plasmids. Cultures were grown under ampicillin selection until the whole cell nitrilase assay yielded an OD640 of approximately 2.0. Cultures were centrifuged at 8,000 xg for 15 min at 4° C. The cells were washed in 0.1M potassium phosphate buffer pH 7.4, repelleted, dried, and frozen at -20° C. The pellet was thawed at 4° C. and resuspended in 40 ml 50 mM potassium phosphate buffer with 1 mM dithiothreitol, 0.1 mM EDTA (KDE). […]

For series [3], the system named is tobacco leaf sections. Kind of series: Tobacco leaf sections in bromoxynil containing media under photoautotrophic conditions. The series is classed as cell-based, Nicotiana tabacum cv. "Xanthi". The protocol: The plasmids were transformed into A, tumefaciens strain LBA4404, followed by co-cultivation with tobacco (Nicotiana tabacum cv. "Xanthi") cotyledonary explants. Kanamycin-resistant shoots were regenerated into tobacoo plants in accordance with conventional techniques.
Approximately 5 mm leaf section from surface-sterilized (10% hypochloriate; water-washed) leaves were suspended in bromoxynil containing media under photoautotrophic conditions. The media employed was MS salts containing 0.93 mg/l naphthylacetic acid and 0.11 mg/l benzylaminopurine, with varying amounts of bromoxynil. The concentration of bromoxynil varied from 10^-3 to 10^-6 M at 0.1 dilutions. The photoautotrophic conditions were 5% CO2, 10% O2, 85% N2. Control tobacco leaf sections which had not been transformed were bleached (inhibited) at 10^-6 M bromoxynil. By contrast, transformed leaf sections expressing the bromoxynil-specific nitrilase from plasmids pBrx39 and pBrx40 were resistant to 10^-5 M and 10^-4 M bromoxynil, respectively.

Series [4] concerns tomato leaf sections. Kind of series: Tomato leaf sections in bromoxynil-containing medium under photoautotrophic conditions. Type of series: cell-based, Lycopersicon esculentum cv. UC828. As for the experimental part:
Co-cultivation of tomato (Lycopersicon esculentum cv. UC828) cotyledonary explants was carried out as described previously with tobacco and kanamycin shoots regenerated. […] Approximately 5 mm leaf sections from surface-sterilized(10% hypochlorite; water washed) leaves were suspended in bromoxynil-containing medium at varying concentrations under photoautotrophic conditions. The media was MS salts containing 2 mg/l […], 1 mg/l isopentyladenine and 100 mg/l myoinositol and bromoxynil at 10^-5 or 10^-6 M. The same photoautotrophic conditions were employed as described for tobacco. […] Transgenic tomato plants (10-20 leaf stage) were sprayed with a commercial formulation of bromoxynil (BUCTRIL) and found to be resistant at 0.5 lbs/acre.

Turning to “Klebsiella ozaenae bromoxynil-specific nitrilase, wild type (nit-wt, from pBrx9) (Klebsiella pneumoniae subsp. ozaenae)”, the Km in series [1] worked out at 310 µM.
In the case of `N#Cc1cc(Br)c(O)c(Br)c1` [bromoxynil, 3,5-dibromo-4-hydroxybenzonitrile], the Michaelis constant (Km) in series [2] was 110 µM. Moreover, the Vmax in series [2] was determined as 9 µmol/min/mg. The minimal effective concentration in series [3] (Nicotiana tabacum, control tobacco leaf sections, not transformed, read-out: concentration at which leaf sections were bleached (inhibited)) was 1 µM; in series [4] (Solanum lycopersicum, control tomato leaf sections, not transformed, read-out: concentration at which leaf sections were bleached), 1 µM. The “concentration to which leaf sections were resistant” value was 10^-5 M in series [3] (transformed tobacco leaf sections expressing nitrilase from pBrx39), 10^-4 M in series [3] (transformed tobacco leaf sections expressing nitrilase from pBrx40) and 10^-5 M in series [4] (transformed tomato expressing nitrilase gene from pBrx29).

Usually Km stands for the concentration of substrate that gives half-maximal velocity. Broadly, the Vmax is the top rate of the reaction or transport when substrate is in excess.
